Values of other authors, collected in patent US20190000795A1, “Methods of using cannabinoids and/or molecular similars for modulating, waking-up and/or disabling cellular functions involved in causing disease -- reinvigorating metabolism with anandamide, 2-arachidonoylglycerol and similarly acting compounds” (priority 2017, published 2019).
Like-named read-outs stand apart in the source and are kept apart here.

Legend:
[1] = target: GPR55 (Homo sapiens, UniProt Q9Y2T6)
[2] = tested on: mitochondrion
[3] = tested on: mitochondrion; remark: listed apart in the source
[4] = tested on: Complex 1; conditions: for Complex 1 activity, rapid and transient increase: below threshold around 10 μM
[5] = tested on: mice
[6] = tested on: Complex 2/3

Sequence of GPR55 (Q9Y2T6 whole entry, species assumed): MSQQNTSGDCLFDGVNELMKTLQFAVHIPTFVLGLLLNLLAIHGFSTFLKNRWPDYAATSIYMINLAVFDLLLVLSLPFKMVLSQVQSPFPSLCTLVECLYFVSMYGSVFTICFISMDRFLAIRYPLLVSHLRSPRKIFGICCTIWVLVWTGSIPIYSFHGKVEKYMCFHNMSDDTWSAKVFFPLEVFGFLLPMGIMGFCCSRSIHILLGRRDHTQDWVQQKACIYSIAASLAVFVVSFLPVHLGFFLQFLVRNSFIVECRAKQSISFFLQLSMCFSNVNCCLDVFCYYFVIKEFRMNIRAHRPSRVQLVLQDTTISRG

Row | SMILES | GPR55 Ca2+ flux activation [1] | O2 consumption at the mitochondrion [2] | further results
1 | CCCCC/C=C\C/C=C\C/C=C\C/C=C\CCCC(=O)OC(CO)CO [2AG, 2-arachidonoylglycerol] | not | – | –
2 | CCCCC/C=C\C/C=C\C/C=C\C/C=C\CCCC(=O)NCCO [AEA, N-arachidonoylethanolamine] | Ca^2+ flux activation | decrease | effect on H2O2 production [3]: no effect; concentration range of steady logarithmic decline of Complex 1 activity [4]: 5-200 μM
3 | CCCCCCC(C)(C)c1ccc([C@@H]2C[C@H](O)CC[C@H]2CCCO)c(O)c1 [CP 55 940] | not | – | –
4 | CCCCCCC(C)(C)c1cc(O)c2c(c1)OC(C)(C)[C@@H]1CC=C(CO)C[C@@H]21 [HU210] | – | decrease | effect on H2O2 production ([3]; between 2 and 10 μM): increase; threshold concentration of sudden decrease of Complex 1 activity [4]: around 10 μM; Complex 1 activity, rapid and transient increase [4]: 25%
5 | CCCn1c(C)c(C(=O)c2cccc3ccccc23)c2ccccc21 [JWH015] | Ca^2+ flux activation | – | –
6 | CCCCC/C=C\C/C=C\C/C=C\C/C=C\CCCC(=O)OCCN [O-AEA, O-arachidonoyl ethanolamine] | not | – | body temperature [5]: lowers body temperature
7 | CCCCCCCCCCCCCCCC(=O)NCCO [PEA, palmitoylethanolamide] | not | – | –
8 | CCCCCc1cc(O)c2c(c1)OC(C)(C)[C@@H]1CCC(C)=C[C@@H]21 [THC, delta-9 tetrahydrocannabinol] | Ca^2+ flux activation | decrease | Complex 2/3 inhibition, course of effect [6]: more steady logarithmic concentration dependent effect; effect on H2O2 production ([3]; between 2 and 10 μM): increase; threshold concentration of sudden decrease of Complex 1 activity [4]: around 10 μM; Complex 1 activity, rapid and transient increase [4]: 50%
9 | CCCCC/C=C\C/C=C\C/C=C\C/C=C\CCCC(=O)N[C@H](C)CO [methanandamide] | Ca^2+ flux activation | – | –
